Source: patent US10272056B2, “Treatment for mitochondrial diseases” (The George Washington University a Congressionally …, priority 2015, dated 2019)

Legend:
Assay type in all cases: cell-based
PC12-ND6 cells = test: Neurite outgrowth with sub-optimal NGF (10 ng/ml)
Method: FIG. 13A-13E are images from microscopy and graphs showing that the timing of NaBt treatment is critical for enhancing neuronal differentiation of PC12-ND6 cells upon sub-optimal neurotrophic cues. (A) Confocal micrographs of PC12-ND6 cells treated with dbcAMP alone or with NaBt (5 mM) in a simultaneous or sequential manner. Scale bar represents 5 μm. (B) Graph of neurite length. Mean±SEM (n=50 for each condition; compared to control (no NaBt) *p=0.0001 and **p=0.0009). (C) Confocal micrographs of PC12-ND6 cells treated with sub-optimal NGF concentration (10 ng/ml) alone or first NaBt (5 mM) in a simultaneous or sequential manner. Scale bar represents 10 μm. (D) Graph of average total neurite length. Mean±SEM (n=50 for each condition; compared to control *p=0.0001). (E) Graph of the frequency of total neurite length below and above 90 μm.
NaBt-mediated modulation of the neuronal potential of PC12-ND6 cells in the context of sub-optimal NGF concentration (10 ng/ml) was further investigated. Transfected PC12-ND6 cells were first treated with NaBt (5 mM) for three days prior to NGF exposure (10 ng/ml). A time course analysis of neurite outgrowth was conducted during the first two days of NGF exposure by live-cell confocal microscopy. […] Such trend of neurite extension was maintained at day 2 of NGF exposure with NaBt-pre-treated or co-treated PC12-ND6 cells. Whether NaBt added concomitantly with NGF (10 ng/ml) could mediate increased neuritogenesis was also assessed.

NRF-1 = test: Quantitative immunoblot analysis of NRF-1; details: NaBt treatment, PC12-ND6
Source text: FIG. 11A-11D are images from microscopy and graphs showing NaBt promotes mtDNA replication via the NRF-1/Tfam axis. (A) Confocal analysis of mtDNA foci; scale bar=5 (B) Quantitative analysis of mtDNA copy number by PCR; *p<0.001. (C, D) Quantitative immunoblot analysis of NRF-1 and Tfam; *p<0.001.
NaBt enhances mtDNA replication via the PGC1α-mediated NRF-1/Tfam axis. It was investigated whether NaBt enhanced mtDNA replication using the PicoGreen® dye to label mtDNA. PC12-ND6 cells were transfected with the mito-dsRed vector prior to NaBt treatment followed by PicoGreen® staining. […] To corroborate enhanced mitochondrial biogenesis, two key target genes of PGC1α were examined, the NRF-1 transcription factor and its direct target gene Tfam, both essential for mitochondrial biogenesis. […] The findings confirm the NaBt-mediated modulation of mitochondrial biogenesis and mtDNA replication in neuronal cells.

[1] = tested on: histones H2B, H3 and H4 proteins; test: Acetylation of specific lysine residues of histones (immunocytochemistry); details: NaBt 5 mM, three days, PC12-ND6 cells
Method: PC12-ND 6 cells were treated with NaBt (5 mM) for three days before performing immunocytochemistry to evaluate the acetylation status of lysine residues of key histone proteins, as listed on top of each confocal micrograph. Left panels illustrate representative pictures of PC12-ND6 cells grown in the absence (control) or presence of NaBt for three days and labeled with specific acetylated Lys antibody (green) and DAPI as a nuclear label (blue). Scale bar represents 10 μm. The right panels show the graph for each quantification of acetylated lysine residue for key histone proteins. Results are expressed as relative fluorescence intensity±S.D. (1000 cells per condition; n=3; * p=0.0001).
Sodium butyrate induces epigenetic reprogramming by acetylating key amino acid residues of histone proteins H2B, H3 and H4. Histone acetylation, which is mediated by two groups of enzymes, histone acetyltransferases (HATs) and histone deacetylases (HDAC), promote gene expression responsible to induce differentiation of neural stem cells and neural progenitor cells. Epigenetic regulators, such as the NaBt and its derivatives, inhibit the activity of HDAC enzymes, thereby favoring HAT activity and inducing an open chromatin structure to allow easy access to the DNA via histone acetylation. Thus, which lysine residues of key histone proteins were targeted by NaBt ws investigated. The lysine residue K27 of the histone H3 protein was targeted, as it is known to be acetylated to favor expression of lineage-specific genes associated with neural differentiation of progenitors and stem cells. Immunocytochemistry results confirmed that NaBt induced a 210% increased acetylation of the K27 residue of H3 (FIG. 5). Analysis was extended to additional acetylation marks, such as the lysine residue K9 of the histone H3, the K12 residue of histone H4 […] are important indicators of active enhancer elements. […] Thus, NaBt induces a specific epigenetic reprogramming of neural-like progenitor PC12-ND6 cell by inducing a series of acetylation marks to confer transcriptional competence.

[2] = tested on: E17.5 hippocampal neurons; test: Neuronal stage 3 frequency with chloramphenicol and NaBt
Source text: FIG. 16A-16I are images from microscopy and a graph showing that Pre-treatment of E17.5 hippocampal neurons with NaBt protects against chloramphenicol-induced loss of neuronal differentiation. (A-D) Confocal micrographs of E17.5 hippocampal neurons exposed to different concentrations of chloramphenicol at 2DIV and labeled with anti tubulin antibody (red) and nuclear counterstain DAPI (blue) at 3DIV. Scale bar represents 10 μm. (E-H) Confocal micrographs of E17.5 hippocampal neurons treated with NaBt (2 mM) at 1DIV prior to exposure to different concentrations of chloramphenicol at 2DIV and labeled with anti tubulin antibody (red) and nuclear counterstain DAPI (blue) at 3DIV. Scale bar represents 10 μm. (I) Graph of E17.5 β-III^+ hippocampal neurons at the neuronal stage 3. Mean±S.D. (n=250 cells; compared to untreated control *p=0.0001; compared to the corresponding non-NaBt treated sample **p=0.0001; compared to non-NaBt treated cells exposed to Cm at 30 μM‡p=0.007).
The consequences of chloramphenicol exposure on untreated or NaBt-treated E17.5 hippocampal neurons was examined. At 1DIV, dissociated E17.5 hippocampal neurons were switched to differentiation medium in the absence or presence of NaBt (2 mM) for 24 hours before being treated with increasing concentrations of chloramphenicol (0, 15, 30, and 60 μM) for 24 hours. At 3DIV, their phenotypic differentiation was examined by immunocytochemistry using an antibody against the pan-neuronal marker β-III tubulin and quantified the percent of neurons having reached the developmental stage 3 for each experimental condition. As expected, only half of untreated neurons reached stage 3 in the absence of NaBt, while more than 90% of NaBt-treated neurons achieved such degree of differentiation, thereby forming an elaborate neuritic network (FIGS. 16A, E, and I).

SMILES: CCCC(=O)[O-].[Na+] [NaBt, sodium butyrate]
- neurite outgrowth, NaBt and NGF administered simultaneously (PC12-ND6 cells; NGF 10 ng/ml): No synergistic effect
- average total neurite length (PC12-ND6 cells; NaBt 5 mM three days pre-treatment, 24 hours NGF 10 ng/ml, control 60 μm): 168 μm
- percent of neurites longer than 90 μm (PC12-ND6 cells; NaBt pre-treated, NGF 10 ng/ml, control 16%): 79%
- NRF-1 expression (NRF-1): increased on day 1
- acetylation of histone H2B [1]: hyperacetylated
- increased acetylation of H3K9 [1]: 250%
- increased acetylation of H4K12 [1]: 124%
- increased acetylation of the K27 residue of H3 [1]: 210%
- frequency of advanced neuronal stage with NaBt pre-treatment ([2]; NaBt 2 mM prior to chloramphenicol up to 60 μM): sustained the frequency of advanced neuronal stage
- percent of neurons reaching stage 3 ([2]; NaBt 2 mM, no chloramphenicol, 3DIV): more than 90%
